Measurements as given in ChEMBL document CHEMBL3259785, “Recent advances in the discovery of small molecules targeting exchange proteins directly activated by cAMP (EPAC)” (J Med Chem, 2014).
pIC50: −log10 of the molar value.

How the values were obtained:
[1] = biological target: T1, Rap guanine nucleotide exchange factor 3 (Homo sapiens, UniProt O95398); assay: Inhibition of EPAC1 (unknown origin) assessed as cAMP-mediated GEF activity
T1 sequence (O95398 whole entry): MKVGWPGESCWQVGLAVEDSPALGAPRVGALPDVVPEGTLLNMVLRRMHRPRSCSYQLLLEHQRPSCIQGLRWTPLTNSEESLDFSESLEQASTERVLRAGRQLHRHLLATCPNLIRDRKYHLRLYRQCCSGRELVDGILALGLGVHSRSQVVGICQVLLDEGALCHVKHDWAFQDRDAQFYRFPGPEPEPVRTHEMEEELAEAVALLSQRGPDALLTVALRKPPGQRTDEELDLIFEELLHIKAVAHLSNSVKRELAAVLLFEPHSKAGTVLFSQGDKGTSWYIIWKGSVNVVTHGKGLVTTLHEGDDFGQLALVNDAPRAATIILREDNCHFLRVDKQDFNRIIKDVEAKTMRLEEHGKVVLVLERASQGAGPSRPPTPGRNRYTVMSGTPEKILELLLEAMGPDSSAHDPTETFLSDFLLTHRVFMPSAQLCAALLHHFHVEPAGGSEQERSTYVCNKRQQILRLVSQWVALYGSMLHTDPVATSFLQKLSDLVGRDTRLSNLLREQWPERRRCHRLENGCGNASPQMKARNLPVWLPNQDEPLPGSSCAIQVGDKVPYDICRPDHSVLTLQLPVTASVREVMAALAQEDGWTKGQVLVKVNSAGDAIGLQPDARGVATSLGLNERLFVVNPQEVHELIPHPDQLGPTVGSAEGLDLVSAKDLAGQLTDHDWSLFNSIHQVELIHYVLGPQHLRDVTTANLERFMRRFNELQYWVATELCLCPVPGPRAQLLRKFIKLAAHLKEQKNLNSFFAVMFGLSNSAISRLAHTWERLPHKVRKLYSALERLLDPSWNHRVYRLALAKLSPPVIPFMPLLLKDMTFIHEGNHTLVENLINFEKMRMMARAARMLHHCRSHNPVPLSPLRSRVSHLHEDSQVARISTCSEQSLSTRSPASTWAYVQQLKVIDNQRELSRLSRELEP

[2] = biological target: T2, Rap guanine nucleotide exchange factor 4 (Homo sapiens, UniProt Q8WZA2); assay: Displacement of 8-NBD-cAMP from EPAC2 (unknown origin) by fluorescence plate reader analysis
T2 sequence (Q8WZA2 whole entry): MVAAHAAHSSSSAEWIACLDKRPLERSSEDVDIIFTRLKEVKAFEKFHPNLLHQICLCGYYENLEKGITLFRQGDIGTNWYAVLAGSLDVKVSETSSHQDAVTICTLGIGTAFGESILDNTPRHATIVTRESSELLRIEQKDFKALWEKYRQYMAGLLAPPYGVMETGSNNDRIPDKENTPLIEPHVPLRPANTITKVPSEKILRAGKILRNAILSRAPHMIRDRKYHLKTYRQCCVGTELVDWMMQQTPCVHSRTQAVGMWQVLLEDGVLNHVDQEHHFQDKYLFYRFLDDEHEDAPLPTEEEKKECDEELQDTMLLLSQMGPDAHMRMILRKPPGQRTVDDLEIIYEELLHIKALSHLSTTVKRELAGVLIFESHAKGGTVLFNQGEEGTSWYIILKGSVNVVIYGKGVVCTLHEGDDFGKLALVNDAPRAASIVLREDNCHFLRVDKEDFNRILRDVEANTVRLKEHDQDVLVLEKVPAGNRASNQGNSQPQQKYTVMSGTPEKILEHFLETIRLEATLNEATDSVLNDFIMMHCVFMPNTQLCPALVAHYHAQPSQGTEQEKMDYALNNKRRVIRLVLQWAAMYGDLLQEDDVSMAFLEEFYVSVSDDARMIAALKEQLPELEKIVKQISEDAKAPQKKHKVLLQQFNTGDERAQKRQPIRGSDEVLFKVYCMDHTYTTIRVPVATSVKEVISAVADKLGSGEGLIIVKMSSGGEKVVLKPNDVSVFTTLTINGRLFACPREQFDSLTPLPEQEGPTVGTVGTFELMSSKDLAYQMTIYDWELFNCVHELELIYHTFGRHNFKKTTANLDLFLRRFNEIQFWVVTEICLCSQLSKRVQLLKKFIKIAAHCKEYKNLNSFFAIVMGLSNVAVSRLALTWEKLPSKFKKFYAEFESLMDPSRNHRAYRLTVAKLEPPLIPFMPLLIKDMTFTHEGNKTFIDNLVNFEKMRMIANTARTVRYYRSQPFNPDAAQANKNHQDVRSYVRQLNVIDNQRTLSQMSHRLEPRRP

[3] = biological target: T2, Rap guanine nucleotide exchange factor 4; assay: Inhibition of EPAC2 (unknown origin)

Compound	pIC50 [1]	pIC50 [2]	pIC50 [3]
CC(C)(C)c1cc(C(=O)/C(C#N)=N/Nc2cccc(Cl)c2)no1	5.49	5.15	–
O=S(=O)(O)c1ccc2c(/N=N/c3c(O)ccc4ccccc34)cccc2c1	–	5.77	–
COCCC[n+]1c(C)csc1Nc1c(C)cc(C)cc1C	–	–	6.22
N#Cc1c(NC(=O)C(F)(F)F)sc2c3c(=O)c4ccccc4c(=O)c=3oc3ccccc3c12	–	5.10	–
O=C1C=CC2=C(Oc3c(ccc(O)c3O)/C2=C/C=C(O)O)C1=O	–	5.42	–
